Structures can show the parent of a compound that is named as a salt. Where two headings read alike, the source gives them in different places.
How the values were obtained:
[1] = biological target: T1, recombinant guanylate cyclase reporter cell line (Rattus norvegicus, UniProt P19686+P20595); assay: Action on recombinant guanylate cyclase reporter cell line; type: cell-based; settings: in some cases mean values from individual determinations
T1 construct: expressed in transfected cells; host or cells: recombinant reporter cell line
T1 sequence (P19686 1-690): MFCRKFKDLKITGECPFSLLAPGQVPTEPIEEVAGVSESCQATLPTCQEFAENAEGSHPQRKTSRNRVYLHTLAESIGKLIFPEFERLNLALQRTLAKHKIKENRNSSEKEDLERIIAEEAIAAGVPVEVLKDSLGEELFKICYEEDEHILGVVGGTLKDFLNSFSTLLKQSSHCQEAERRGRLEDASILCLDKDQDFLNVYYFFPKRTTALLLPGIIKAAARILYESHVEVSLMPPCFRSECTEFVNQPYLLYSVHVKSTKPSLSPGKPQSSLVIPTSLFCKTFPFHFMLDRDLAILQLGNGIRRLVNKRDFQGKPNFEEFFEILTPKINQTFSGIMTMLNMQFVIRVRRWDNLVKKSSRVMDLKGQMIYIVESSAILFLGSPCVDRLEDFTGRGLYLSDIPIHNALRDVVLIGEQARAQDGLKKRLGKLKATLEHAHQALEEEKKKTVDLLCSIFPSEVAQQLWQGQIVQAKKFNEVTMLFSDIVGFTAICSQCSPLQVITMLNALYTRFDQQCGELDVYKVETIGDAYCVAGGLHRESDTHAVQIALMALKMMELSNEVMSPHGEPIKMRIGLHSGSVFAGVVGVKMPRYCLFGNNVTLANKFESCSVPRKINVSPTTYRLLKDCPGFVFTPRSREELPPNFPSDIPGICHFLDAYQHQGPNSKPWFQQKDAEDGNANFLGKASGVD
T1 sequence (P20595 1-619): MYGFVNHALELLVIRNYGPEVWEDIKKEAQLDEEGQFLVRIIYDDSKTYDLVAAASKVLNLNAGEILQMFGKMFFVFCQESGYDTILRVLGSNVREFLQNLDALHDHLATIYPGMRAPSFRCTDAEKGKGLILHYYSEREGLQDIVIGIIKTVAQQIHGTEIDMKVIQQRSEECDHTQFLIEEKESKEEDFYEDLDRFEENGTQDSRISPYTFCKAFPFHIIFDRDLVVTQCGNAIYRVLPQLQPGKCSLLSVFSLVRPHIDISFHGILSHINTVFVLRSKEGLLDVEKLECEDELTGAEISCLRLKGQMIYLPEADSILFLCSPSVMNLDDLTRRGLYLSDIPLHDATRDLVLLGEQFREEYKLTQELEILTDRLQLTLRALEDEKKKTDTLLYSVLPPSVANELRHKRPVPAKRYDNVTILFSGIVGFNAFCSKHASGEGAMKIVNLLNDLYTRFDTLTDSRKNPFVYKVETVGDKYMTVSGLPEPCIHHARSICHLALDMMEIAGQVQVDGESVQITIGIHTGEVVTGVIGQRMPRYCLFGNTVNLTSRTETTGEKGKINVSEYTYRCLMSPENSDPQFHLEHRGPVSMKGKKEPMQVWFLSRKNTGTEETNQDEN
In short: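 Each compound is applied to a cell line engineered with a reporter for recombinant guanylate cyclase. The minimal effective concentration is then noted, in part as a mean across separate determinations.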

[2] = Determination of pharmacokinetic parameters following intravenous and oral administration (rats); type: in vivo, male Wistar rats; settings: intravenous administration in rats
Protocol: B-6. Determination of Pharmacokinetic Parameters Following Intravenous and Oral Administration
The pharmacokinetic parameters of the compounds according to the invention are determined in male CD-1 mice, male Wistar rats and female beagles. Intravenous administration in the case of mice and rats is carried out by means of a species-specific plasma/DMSO formulation, and in the case of dogs by means of a water/PEG400/ethanol formulation. In all species, oral administration of the dissolved substance is performed via gavage, based on a water/PEG400/ethanol formulation. The taking of blood from rats is simplified by inserting a silicone catheter into the right Vena jugularis externa prior to substance administration. The operation is carried out at least one day prior to the experiment with […] and administration of an analgesic (atropin/Rimadyl (3/1) 0.1 ml s.c.). The blood is taken (generally more than 10 time points) within a time window including terminal time points of at least 24 to a maximum of 72 hours after substance administration. When the blood is taken, it is passed into heparinised tubes. Then the blood plasma is obtained by centrifugation and is optionally stored at −20° C. until further processing.
An internal standard (which may also be a chemically unrelated substance) is added to the samples of the compounds according to the invention, calibration samples and qualifiers, and there follows protein precipitation by means of excess acetone. Addition of a buffer solution matched to the LC conditions, and subsequent vortexing, is followed by centrifugation at 1000 g. The supernatant is analysed by LC-MS/MS using C18 reversed-phase columns and variable mobile phase mixtures. The substances are quantified via the peak heights or areas from extracted ion chromatograms of specific selected ion monitoring experiments.
The plasma concentration/time plots determined are used to calculate the pharmacokinetic parameters such as AUC, Cmax, t1/2 (terminal half life), F (bioavailability), MRT (mean residence time) and CL (clearance), using a validated pharmacokinetic calculation program.
Since the substance quantification is carried out in plasma, it is necessary to determine the blood/plasma distribution of the substance in order to be able to adjust the pharmacokinetic parameters correspondingly. For this purpose, a defined amount of substance is incubated in heparinized whole blood of the species in question in a rocking roller mixture for 20 min. After centrifugation at 1000 g, the plasma concentration is measured (by means of LC-MS/MS; see above) and determined by calculating the ratio of the Cblood/Cplasma value.

[3] = male, Wistar, rat, plasma, iv, read-out: MRT

| MEC (minimal effective concentration) [1] [µM] | AUCnorm [2] [kg·h/L] | CLblood [2] [mL/min/kg] | half-life ([2]; male, Wistar, rat, plasma, iv) [h] | MRT [2, 3] [h] | MRT [2] [h] | t1/2 [2] [h] | Compound |
| --- | --- | --- | --- | --- | --- | --- | --- |
| 0.3 | 0.42 | 46 | 2.3 | 2.9 |  |  | CCC(C)(N)CNC(=O)c1c(C)nc2c(OCc3c(F)cccc3F)cc(OC)cn12 (single isomer, unassigned; enantiomer a) [Example 279, ent-N-(2-amino-2-methylbutyl)-8-[(2,6-difluorobenzyl)oxy]-6-methoxy-2-methylimidazo[1,2-a]pyridine-3-carboxamide (Enantiomer A)] |
| 0.3 | 0.67 | 14.5 | 3.1 | 3.9 |  |  | Cc1cc(OCc2c(F)cccc2F)c2nc(C)c(C(=O)NCC(C)(N)CF)n2c1 (single isomer, unassigned; enantiomer a) [Example 283, ent-N-(2-amino-3-fluoro-2-methylpropyl)-8-[(2,6-difluorobenzyl)oxy]-2,6-dimethylimidazo[1,2-a]pyridine-3-carboxamide (Enantiomer A)] |
| 0.3 | 0.54 | 17 | 3.6 | 4.4 |  |  | Cc1cc(OCc2c(F)ccc(F)c2F)c2nc(C)c(C(=O)NCC(C)(N)CF)n2c1 (single isomer, unassigned; enantiomer a) [Example 285, ent-N-(2-amino-3-fluoro-2-methylpropyl)-2,6-dimethyl-8-[(2,3,6-trifluorobenzyl)oxy]imidazo[1,2-a]pyridine-3-carboxamide (Enantiomer A)] |
| 0.3 | 0.66 | 29.3 | 5.4 | 8.4 |  |  | CCC(C)(N)CNC(=O)c1c(C)nc2c(OCc3c(F)cccc3F)cc(C(F)F)cn12 (single isomer, unassigned; enantiomer a) [Example 287, ent-N-(2-amino-2-methylbutyl)-8-[(2,6-difluorobenzyl)oxy]-6-(difluoromethyl)-2-methylimidazo[1,2-a]pyridine-3-carboxamide Formate (Enantiomer A)] |
| 1.0 | 0.87 | 14 | 4.8 | 5.7 |  |  | Cc1nc2c(OCc3c(F)cccc3F)cc(C(F)F)cn2c1C(=O)NCC(C)(N)CF (single isomer, unassigned; enantiomer a) [Example 291, ent-N-(2-amino-3-fluoro-2-methylpropyl)-8-[(2,6-difluorobenzyl)oxy]-6-(difluoromethyl)-2-methylimidazo[1,2-a]pyridine-3-carboxamide (Enantiomer A)] |
| 0.30 | 2.26 | 12.3 | 4.8 | 6.9 |  |  | Cc1nc2c(OCc3c(F)cccc3F)cccn2c1C(=O)NC(CN)c1ccc(F)cc1 (single isomer, unassigned; enantiomer b) [Example 10, ent-N-[2-Amino-1-(4-fluorophenyl)ethyl]-8-[(2,6-difluorobenzyl)oxy]-2-methylimidazo[1,2-a]-pyridine-3-carboxamide (Enantiomer B)] |
| 0.10 | 0.47 | 38.2 | 3.7 | 4.7 |  |  | Cc1cc(OCc2c(F)cccc2F)c2nc(C)c(C(=O)NCC(C)(N)C3CC3)n2c1 (single isomer, unassigned; enantiomer b) [Example 261, ent-N-(2-Amino-2-cyclopropylpropyl)-8-[(2,6-difluorobenzyl)oxy]-2,6-dimethylimidazo[1,2-a]-pyridine-3-carboxamide (Enantiomer B)] |
| 0.10 | 0.64 | 20.8 |  |  | 7.2 | 4.1 | CCC(C)(N)CNC(=O)c1c(C)nc2c(OCc3c(F)ccc(F)c3F)cc(C)cn12 (single isomer, unassigned; enantiomer b) [Example 275, ent-N-(2-Amino-2-methylbutyl)-2,6-dimethyl-8-[(2,3,6-trifluorobenzyl)oxy]imidazo[1,2-a]-pyridine-3-carboxamide (Enantiomer B)] |
| 0.3 | 0.28 | 39 | 5.5 | 6.9 |  |  | CCCC(C)(N)CNC(=O)c1c(C)nc2c(OCc3c(F)cccc3F)cc(C3CC3)cn12 (single isomer, unassigned; enantiomer b) [Example 281, ent-N-(2-amino-2-methylpentyl)-6-cyclopropyl-8-[(2,6-difluorobenzyl)oxy]-2-methylimidazo[1,2-a]pyridine-3-carboxamide (Enantiomer B)] |
| 0.1 | 1.20 | 16.2 |  |  | 5.3 | 4.6 | Cc1cc(OCc2c(F)cccc2F)c2nc(C)c(C(=O)NCC(C)(N)CF)n2c1 (single isomer, unassigned; enantiomer b) [Example 284, ent-N-(2-amino-3-fluoro-2-methylpropyl)-8-[(2,6-difluorobenzyl)oxy]-2,6-dimethylimidazo[1,2-a]pyridine-3-carboxamide (Enantiomer B)] |
| 0.1 | 0.82 | 23.2 |  |  | 4.5 | 3.8 | Cc1cc(OCc2c(F)ccc(F)c2F)c2nc(C)c(C(=O)NCC(C)(N)CF)n2c1 (single isomer, unassigned; enantiomer b) [Example 286, ent-N-(2-amino-3-fluoro-2-methylpropyl)-2,6-dimethyl-8-[(2,3,6-trifluorobenzyl)oxy]imidazo[1,2-a]pyridine-3-carboxamide (Enantiomer B)] |

— patent US20150274719A1, “AMINO-SUBSTITUTED IMIDAZO[1,2-A]PYRIDINECARBOXAMIDES AND THEIR USE” (BAYER PHARMA AKTIENGESELLSCHAFT, priority 2012, published 2015)
